Reference: patent US11440907B1 (Merck Patent GmbH, priority 2018, dated 2022)

tested on: XBP1(u)-luciferase splicing reporter in HepG2 hepatoma cells; experiment: HepG2 XBP1 reporter assay (XBP1(u)-Luc); type: cell-based; details: Homo sapiens, 6 h, six hours after addition of compound
From the text: HepG2 XBP1 Reporter Assay
HepG2 hepatoma cells were transduced with a retrovirus encoding the cDNA for unspliced (u) XBP1, which contains a non-processed intron, fused to the cDNA for firefly luciferase. Upon induction of ER stress, the non-processed intron of XBP1(u) is spliced out by active IRE1alpha endonuclease. The resulting spliced (s) XBP1 is now in frame with luciferase which causes the production of active luciferase protein, resulting in bioluminescence
HepG2 XBP1(u)-Luc cells were plated […] Cultured cells with a stably transfected reporter construct were plated at approximately 30,000 cells per well into 96 well multi-well plates for twenty four hours. The testing compounds were then added to the wells in 3-fold serial dilutions using a twenty seven micromolar top concentration. A series of control wells for each cell type received only compound solvent. Six hours after the addition of compound, reporter activity for luciferase was assayed, by addition of the SteadyGlo luminescence reagent (Promega). The reporter luminescence activity was measured using Pherastar plate reader (BMG Labtech). Readings was normalized to DMSO only treated cells, and normalized activities were then used in the IC50 calculations. The HepG2 XBP1 reporter assay data are summarized in Tables 3-5: A<0.6 μM; 0.6 μM≤B<2.0 μM; 2.0 μM≤C<5.0 μM; D≥5.0 μM.

Compound | IC50
Cc1cc(N2CCCOCC2c2cc(CC(=O)O)c(C#N)cc2Cl)nc(N)n1 [D-156] | ≥ 5000 nM
COC(=O)Cc1cc(C2COCCCN2c2cc(C)nc(N)n2)c(Cl)cc1C#N [D-53] | 2000 to 5000 nM
Cc1cc(N2CCCOC[C@H]2c2cc3c(cc2Cl)NC[C@@](C)(C(=O)O)O3)nc(N)n1 [D-114] | ≥ 5000 nM
Cc1cc(N2CCCOC[C@H]2c2cc(O)c(C)cc2Cl)nc(N)n1 [D-165] | ≥ 5000 nM
CCOc1cc([C@H]2COCCCN2c2cc(C)nc(N)n2)c(Cl)cc1OCC(N)=O [D-101] | < 600 nM
Cc1cc(N2CCCOC[C@H]2c2ccc(C3CCN(C4COC4)CC3)cc2Cl)nc(N)n1 [D-163] | ≥ 5000 nM
Cc1cc(N2CCCOC[C@@H]2c2cc(O)c(C(=O)NC3CC3)cc2Cl)nc(N)n1 [D-131] | ≥ 5000 nM
CCOC(=O)c1cc(C2COCCCN2c2cc(C)nc(N)n2)c(Cl)cc1C#N [D-129] | ≥ 5000 nM
CCOc1cc(C2COCCCN2c2cc(C)nc(N)n2)c(Cl)cc1OCC(=O)O [D-160] | ≥ 5000 nM
Cc1cc(N2CCCOCC2c2ccc(NC(=O)CC(C)(C)C)cc2Cl)nc(N)n1 [D-96] | 600 to 2000 nM
Cc1cc(N2CCCOC[C@H]2c2cc(O)c(C(=O)N(C)C)cc2Cl)nc(N)n1 [D-183] | ≥ 5000 nM
C=CCOc1cc(Cl)c(C2COCCCN2c2cc(C)nc(N)n2)cc1OCC [D-48] | 600 to 2000 nM
CS(=O)(=O)c1ccc(C2COCCCN2c2cc(C(F)(F)F)nc(N)n2)c(Cl)c1 [D-188] | ≥ 5000 nM
COC(=O)c1cc(Cl)c(C2COCCCN2c2cc(C)nc(N)n2)cc1C#N [D-135] | ≥ 5000 nM
CCCC(=O)Nc1ccc(C2COCCCN2c2cc(C)nc(N)n2)c(Cl)c1 [D-95] | 600 to 2000 nM
Cc1cc(N2CCCOCC2c2cc3c(cc2Cl)NC[C@@](C)(C(=O)NC2CC2)O3)nc(N)n1 (stereo partly drawn) [D-122] | < 600 nM
Cc1cc(N2CCCOC[C@@H]2c2cnc(CS(C)(=O)=O)cc2Cl)nc(N)n1 [D-166] | ≥ 5000 nM
Cc1cc(N2CCCOC[C@H]2c2cnc(CS(C)(=O)=O)cc2Cl)nc(N)n1 [D-76] | < 600 nM
Cc1cc(N2CCCOC[C@H]2c2cc(O)c(C(=O)NCCO)cc2Cl)nc(N)n1 [D-185] | ≥ 5000 nM
Cc1cc(N2CCCOC[C@@H]2c2cc(CN)c(Cl)cc2C)nc(N)n1 [D-99] | < 600 nM
Cc1cc(N2CCCOCC2c2cc(O)c(S(C)(=O)=O)cc2Cl)nc(N)n1 [D-79] | 600 to 2000 nM
Cc1cc(N2CCCOCC2c2cnc(CS(C)(=O)=O)cc2OC(F)F)nc(N)n1 [D-85] | 600 to 2000 nM

Compound | IC50
Cc1cc(N2CCCOC[C@@H]2c2ccc(C3CCNCC3)cc2Cl)nc(N)n1 [D-66] | 2000 to 5000 nM
Cc1cc(N2CCCOC[C@@H]2c2ccc(N3C[C@@H](C)O[C@@H](C)C3)cc2Cl)nc(N)n1 [D-84] | 600 to 2000 nM
CCOc1cc(C2COCCCN2c2cc(C)nc(N)n2)c(Cl)cc1OCC(N)=O [D-72] | 600 to 2000 nM
CNC(=O)c1cc(Cl)c(C2COCCCN2c2cc(C)nc(N)n2)cc1O [D-118] | 600 to 2000 nM
Cc1cc(N2CCCOCC2c2ccc(S(C)(=O)=O)cc2C#N)nc(N)n1 [D-190] | ≥ 5000 nM
Cc1cc(N2CCCOC[C@H]2c2ccc(CS(C)(=O)=O)nc2OC(F)F)nc(N)n1 [D-173] | ≥ 5000 nM
Cc1cc(N2CCCOCC2c2ccc(Cl)cc2C(=O)O)nc(N)n1 [D-177] | ≥ 5000 nM
Cc1cc(N2CCCOCC2c2cc(O)c(NC(=O)CC(C)(C)O)cc2Cl)nc(N)n1 [D-100] | 600 to 2000 nM
CCc1cc(N2CCCOC[C@H]2c2cc(O)c(OC)cc2Cl)nc(N)n1 [D-179] | ≥ 5000 nM
Cc1cc(N2CCCOC[C@H]2c2cc(N)c(OC(F)(F)F)cc2Cl)nc(N)n1 [D-161] | ≥ 5000 nM
Cc1cc(N2CCCOCC2c2cnc(CS(C)(=O)=O)nc2O)nc(N)n1 [D-172] | ≥ 5000 nM
Cc1cc(N2CCCOC[C@H]2c2cc(CN)c(Cl)cc2C)nc(N)n1 [D-174] | ≥ 5000 nM
Cc1cc(N2CCCOCC2c2cc(CN)c(Cl)cc2C)nc(N)n1 [D-73] | 600 to 2000 nM
CCC(=O)Nc1cc(Cl)c(C2COCCCN2c2cc(C)nc(N)n2)cc1O [D-97] | < 600 nM
Cc1cc(N2CCCOC[C@H]2c2cc(O)c(C(N)=O)cc2Cl)nc(N)n1 [D-180] | ≥ 5000 nM
Cc1cc(N2CCCOC[C@@H]2c2ccc([C@H](C)S(C)(=O)=O)cc2Cl)nc(N)n1 [D-139] | 600 to 2000 nM
Cc1cc(N2CCCOCC2c2ccc(Cl)cc2C#N)nc(N)n1 [D-107] | 600 to 2000 nM
Cc1cc(N2CCCOC[C@H]2c2cc(O)c(C(=O)NC(C)C)cc2Cl)nc(N)n1 [D-121] | ≥ 5000 nM
Cc1cc(N2CCCOC[C@@H]2c2cc(O)c(C(=O)NCCO)cc2Cl)nc(N)n1 [D-130] | ≥ 5000 nM
COc1cc(C2COCCCN2c2cc(C)nc(N)n2)c(Cl)cc1OCC(=O)NC(C)(C)C [D-32] | 600 to 2000 nM
Cc1cc(N2CCCOC[C@H]2c2cc3c(cc2Cl)NC[C@@](C)(C(=O)OC(C)C)O3)nc(N)n1 [D-128] | 600 to 2000 nM
Cc1cc(N2CCCOC[C@@H]2c2cc(O)c(C(=O)N3CCOCC3)cc2Cl)nc(N)n1 [D-137] | < 600 nM

same assay, conditions: Homo sapiens, 6 hours after compound addition, Table 4

Compound | IC50
Cc1cc(N2CCCOCC2c2cc(Cl)c(OC(F)F)cc2Cl)nc(N)n1 (centres unmarked) [C-57] | 600 to 2000 nM
Cc1cc(N2CCCOCC2c2cc3c(cc2Cl)COCO3)nc(N)n1 (centres unmarked) [C-96] | 600 to 2000 nM
Cc1cc(N2CC(C)COCC2c2ccc(CS(C)(=O)=O)cc2Cl)nc(N)n1 (centres unmarked) [C-63, 4-[3-(2-Chloro-4-methanesulfonylmethyl-phenyl)-6-methyl-[1,4]oxazepan-4-yl]-6-methyl-pyrimidin-2-ylamine] | ≥ 5000 nM
CCOC(=O)COc1cc(Cl)c(C2COCCCN2c2cc(C)nc(N)n2)cc1OC (centres unmarked) [C-89] | 600 to 2000 nM
CNc1cc(Cl)c(C2COCCCN2c2cc(C)nc(N)n2)cc1C (centres unmarked) [C-25] | < 600 nM
Cc1cc(N2C[C@H](C)COC[C@H]2c2ccc(CS(C)(=O)=O)cc2Cl)nc(N)n1 [C-139] | ≥ 5000 nM
Cc1cc(N2CCCOCC2c2ccc(CS(C)(=O)=O)nc2Cl)nc(N)n1 (centres unmarked) [C-82] | 600 to 2000 nM
CC[C@@H]1COC[C@@H](c2ccc(CS(C)(=O)=O)cc2Cl)N(c2cc(C)nc(N)n2)C1 [C-110] | ≥ 5000 nM
Cc1cc(N2CCCOC[C@@H]2c2cc(C)c(N)cc2Cl)nc(N)n1 [C-115] | < 600 nM
Cc1cc(N2CCCOCC2c2cc(S(N)(=O)=O)c(Cl)cc2Cl)nc(N)n1 (centres unmarked) [C-8] | 600 to 2000 nM
Nc1nccc(N2CCCOC[C@@H]2c2cc3c(cc2Cl)OCCCO3)n1 [C-72] | < 600 nM
COc1cc(Cl)c(C2COCCCN2c2cc(C)nc(N)n2)cc1C (centres unmarked) [C-99] | 600 to 2000 nM
Cc1cc(N2CCCOCC2c2ccc(OCS(C)(=O)=O)cc2Cl)nc(N)n1 (centres unmarked) [C-120, 4-[3-(2-Chloro-4-methanesulfonylmethoxy-phenyl)-[1,4]oxazepan-4-yl]-6-methyl-pyrimidin-2-ylamine] | < 600 nM
Cc1cc(N2CCCOCC2c2ccc(O[C@H](C)CO)cc2Cl)nc(N)n1 (stereo partly drawn) [C-60, (R)-2-{4-[4-(2-Amino-6-methyl-pyrimidin-4-yl)-[1,4]oxazepan-3-yl]-3-chloro-phenoxy}-propan-1-ol] | 600 to 2000 nM
Cc1cc(N2CCCOC=C2c2c(O)cc(N3CCC(C)(O)CC3)cc2Cl)nc(N)n1 [C-127] | 2000 to 5000 nM
COc1cc(C2COCCCN2c2nc(C)nc(N)n2)c(Cl)cc1N1CCCCC1 (centres unmarked) [C-101] | 600 to 2000 nM
Cc1cc(N2CCCOC[C@@H]2c2cc3c(cc2Cl)NCC3)nc(N)n1 [C-59] | < 600 nM
Cc1cc(N2CCCOC[C@H]2c2cc(C)c(N)cc2Cl)nc(N)n1 [C-114] | ≥ 5000 nM

Compound | IC50
Cc1cc(N2CCCOC[C@@H]2c2cc3c(cc2Cl)n(C)c(=O)n3C)nc(N)n1 [C-93] | < 600 nM
CCOc1cc(Cl)c([C@H]2COCCCN2c2cc(C)nc(N)n2)cc1OCC [C-103] | < 600 nM
CCCOc1cc(Cl)c(C2COCCCN2c2cc(C)nc(N)n2)cc1OCC (centres unmarked) [C-91] | 600 to 2000 nM
COc1cc(C2COCCCN2c2ccnc(N)n2)c(Cl)cc1OC1CCCC1 (centres unmarked) [C-102] | 600 to 2000 nM
CCOc1cc(C2COCCCN2c2cc(C)nc(N)n2)c(Cl)cc1OC (centres unmarked) [C-29] | < 600 nM
Cc1cc(N2CCCOC[C@@H]2c2cc(F)c(N3CCC(C)(O)CC3)cc2Cl)nc(N)n1 [C-125] | 600 to 2000 nM
COc1cc(Cl)c([C@H]2COCCCN2c2cc(C)nc(N)n2)cc1OC [C-80] | < 600 nM
COc1cc(C2COCCCN2c2cc(C)nc(N)n2)c(Cl)cc1N (centres unmarked) [C-76] | < 600 nM
Cc1cc(N2CCCOCC2c2ccc(CS(C)(=O)=O)cc2OC(F)(F)F)nc(N)n1 (centres unmarked) [C-113] | < 600 nM
Cc1cc(N2CCCOCC2c2cc(OC(F)(F)F)c(N)cc2Cl)nc(N)n1 (centres unmarked) [C-130] | 600 to 2000 nM
Cc1cc(N2CCCOCC2c2cc(N)c(OC(F)(F)F)cc2Cl)nc(N)n1 (centres unmarked) [C-141] | < 600 nM
Cc1cc(Cl)c(C2COCCCN2c2cc(N)nc(N)n2)cc1C (centres unmarked) [C-27] | 600 to 2000 nM
Cc1cc(N2CCCOC[C@@H]2c2cc3c(cc2Cl)OCCO3)nc(N)n1 [C-70] | < 600 nM
Cc1cc(N2CC3(CC3)COC[C@@H]2c2ccc(CS(C)(=O)=O)cc2Cl)nc(N)n1 [C-136] | ≥ 5000 nM
CSCOc1ccc([C@H]2COCCCN2c2cc(C)nc(N)n2)c(Cl)c1 [C-121, 4-[(S)-3-(2-Chloro-4-methylsulfanylmethoxy-phenyl)-[1,4]oxazepan-4-yl]-6-methyl-pyrimidin-2-ylamine] | ≥ 5000 nM
CCOc1cc(Cl)c([C@H]2COCCCN2c2cc(C)nc(N)n2)cc1Cl [C-117] | < 600 nM
Cc1cc(N2CC(O)COC[C@@H]2c2ccc(N3CCC(C)(O)CC3)cc2Cl)nc(N)n1 (some centres unmarked) [C-124] | < 600 nM
Cc1cc(N2CCCOCC2c2cc(N)c(C(F)(F)F)cc2Cl)nc(N)n1 (centres unmarked) [C-77] | 600 to 2000 nM
